Results taken from patent US20230085307A1, “PYRIDAZINONE COMPOUND AND HERBICIDE” (NISSAN CHEMICAL CORPORATION, priority 2019, published 2023).

Columns and labels:
chickweed [1] = experiment: Test Example 4: herbicidal effect by soil treatment (Table 19, symbol P); format: in vivo, common chickweed (Stellaria media); conditions: amount of applied herbicide 320 g/ha
How it was run: (§1)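 Pre-emergence style soil spray: seeds under ~1.5 cm sterilized diluvial soil received a uniform coat of emulsion diluted to the predetermined herbicide amount. Greenhouse 25–30° C; readout at week three on previously defined criteria.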

lambsquarters [2] = experiment: Test Example 5: herbicidal effect by foliage application, plastic box (Table 20, symbol O); format: in vivo, lambsquarters (Chenopodium album); conditions: foliage application, AAH 320 g/ha, evaluated three weeks after application
How it was run: (§2)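 Plants were sown into sterilized diluvial soil under about 1.5 cm cover and kept in a greenhouse at 25° C. to 30° C. Fourteen days on, foliage received an even spray of the diluted emulsion. Herbicidal or crop effect was judged three weeks afterwards.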

barnyard grass [3] = experiment: Test Example 4: herbicidal effect by soil treatment (Table 19, symbol H); format: in vivo, barnyard grass (Echinochloa crus-galli); conditions: amount of applied herbicide 320 g/ha
How it was run: as §1

Italian ryegrass [4] = experiment: Test Example 5: herbicidal effect by foliage application, plastic box (Table 20, symbol K); format: in vivo, Italian ryegrass (Lolium multiflorum); conditions: foliage application, AAH 320 g/ha, evaluated three weeks after application
How it was run: as §2

rice flat sedge = experiment: Test Example 3: herbicidal effect by foliage application, Wagner pot (Table 18, symbol E); format: in vivo, rice flat sedge (Cyperus iria); conditions: amount of applied herbicide 320 g/ha
How it was run: (§3)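 Plants were sown in alluvial soil held under 0.1–0.5 cm standing water and grown 14 days in a greenhouse at 25–30 °C. An emulsifiable formulation, water-diluted to the set dose, was then sprayed onto the foliage, and effects were scored three weeks later using previously defined criteria.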

southern crabgrass [5] = experiment: Test Example 4: herbicidal effect by soil treatment (Table 19, symbol F); format: in vivo, southern crabgrass (Digitaria ciliaris); conditions: amount of applied herbicide 320 g/ha
How it was run: as §1

oval-leafed pondweed = experiment: Test Example 1: herbicidal activity, application before weed generation under submerged conditions (Table 16, symbol C); format: in vivo, oval-leafed pondweed (Monochoria vaginalis); conditions: amount of applied herbicide 320 g/ha
How it was run: (§4)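 Submerged Wagner pots (alluvial soil, 4 cm water) sown with weed seeds and planted with 2.5-leaf rice seedlings; emulsifiable concentrate diluted in water applied to water surface on sowing day. Held in greenhouse at 25-30 °C; injury scored 0-5 by herbicidal rate after three weeks.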

chickweed [6] = experiment: Test Example 5: herbicidal effect by foliage application, plastic box (Table 20, symbol P); format: in vivo, common chickweed (Stellaria media); conditions: foliage application, AAH 320 g/ha, evaluated three weeks after application
How it was run: as §2

Chinese sprangletop = experiment: Test Example 3: herbicidal effect by foliage application, Wagner pot (Table 18, symbol D); format: in vivo, chinese sprangletop (Leptochloa chinensis); conditions: amount of applied herbicide 320 g/ha
How it was run: as §3

windgrass [7] = experiment: Test Example 5: herbicidal effect by foliage application, plastic box (Table 20, symbol L); format: in vivo, windgrass (Apera spica-venti); conditions: foliage application, AAH 320 g/ha, evaluated three weeks after application
How it was run: as §2

Italian ryegrass [8] = experiment: Test Example 4: herbicidal effect by soil treatment (Table 19, symbol K); format: in vivo, Italian ryegrass (Lolium multiflorum); conditions: amount of applied herbicide 320 g/ha
How it was run: as §1

blackgrass [9] = experiment: Test Example 4: herbicidal effect by soil treatment (Table 19, symbol J); format: in vivo, blackgrass (Alopecurus myosuroides); conditions: amount of applied herbicide 320 g/ha
How it was run: as §1

barnyard grass [10] = experiment: Test Example 5: herbicidal effect by foliage application, plastic box (Table 20, symbol H); format: in vivo, barnyard grass (Echinochloa crus-galli); conditions: foliage application, AAH 320 g/ha, evaluated three weeks after application
How it was run: as §2

wild oat [11] = experiment: Test Example 4: herbicidal effect by soil treatment (Table 19, symbol I); format: in vivo, wild oat (Avena fatua); conditions: amount of applied herbicide 320 g/ha
How it was run: as §1

redroot pigweed [12] = experiment: Test Example 4: herbicidal effect by soil treatment (Table 19, symbol N); format: in vivo, redroot pigweed (Amaranthus retroflexus); conditions: amount of applied herbicide 320 g/ha
How it was run: as §1

Japanese bulrush = experiment: Test Example 1: herbicidal activity, application before weed generation under submerged conditions (Table 16, symbol B); format: in vivo, Japanese bulrush (Schoenoplectus juncoides); conditions: amount of applied herbicide 320 g/ha
How it was run: as §4

southern crabgrass [13] = experiment: Test Example 5: herbicidal effect by foliage application, plastic box (Table 20, symbol F); format: in vivo, southern crabgrass (Digitaria ciliaris); conditions: foliage application, AAH 320 g/ha, evaluated three weeks after application
How it was run: as §2

velvetleaf [14] = experiment: Test Example 4: herbicidal effect by soil treatment (Table 19, symbol M); format: in vivo, velvetleaf (Abutilon theophrasti); conditions: amount of applied herbicide 320 g/ha
How it was run: as §1

windgrass [15] = experiment: Test Example 4: herbicidal effect by soil treatment (Table 19, symbol L); format: in vivo, windgrass (Apera spica-venti); conditions: amount of applied herbicide 320 g/ha
How it was run: as §1

wild oat [16] = experiment: Test Example 5: herbicidal effect by foliage application, plastic box (Table 20, symbol I); format: in vivo, wild oat (Avena fatua); conditions: foliage application, AAH 320 g/ha, evaluated three weeks after application
How it was run: as §2

persian speedwell [17] = experiment: Test Example 4: herbicidal effect by soil treatment (Table 19, symbol R); format: in vivo, Persian speedwell (Veronica persica); conditions: amount of applied herbicide 320 g/ha
How it was run: as §1

lambsquarters [18] = experiment: Test Example 4: herbicidal effect by soil treatment (Table 19, symbol O); format: in vivo, lambsquarters (Chenopodium album); conditions: amount of applied herbicide 320 g/ha
How it was run: as §1

green foxtail [19] = experiment: Test Example 4: herbicidal effect by soil treatment (Table 19, symbol G); format: in vivo, green foxtail (Setaria viridis); conditions: amount of applied herbicide 320 g/ha
How it was run: as §1

barnyard grass [20] = experiment: Test Example 3: herbicidal effect by foliage application, Wagner pot (Table 18, symbol H); format: in vivo, barnyard grass (Echinochloa crus-galli); conditions: amount of applied herbicide 320 g/ha
How it was run: as §3

late watergrass = experiment: Test Example 1: herbicidal activity, application before weed generation under submerged conditions (Table 16, symbol A); format: in vivo, late watergrass (Echinochloa oryzicola); conditions: amount of applied herbicide 320 g/ha
How it was run: as §4

blackgrass [21] = experiment: Test Example 5: herbicidal effect by foliage application, plastic box (Table 20, symbol J); format: in vivo, blackgrass (Alopecurus myosuroides); conditions: foliage application, AAH 320 g/ha, evaluated three weeks after application
How it was run: as §2

green foxtail [22] = experiment: Test Example 5: herbicidal effect by foliage application, plastic box (Table 20, symbol G); format: in vivo, green foxtail (Setaria viridis); conditions: foliage application, AAH 320 g/ha, evaluated three weeks after application
How it was run: as §2

redroot pigweed [23] = experiment: Test Example 5: herbicidal effect by foliage application, plastic box (Table 20, symbol N); format: in vivo, redroot pigweed (Amaranthus retroflexus); conditions: foliage application, AAH 320 g/ha, evaluated three weeks after application
How it was run: as §2

velvetleaf [24] = experiment: Test Example 5: herbicidal effect by foliage application, plastic box (Table 20, symbol M); format: in vivo, velvetleaf (Abutilon theophrasti); conditions: foliage application, AAH 320 g/ha, evaluated three weeks after application
How it was run: as §2

persian speedwell [25] = experiment: Test Example 5: herbicidal effect by foliage application, plastic box (Table 20, symbol R); format: in vivo, Persian speedwell (Veronica persica); conditions: foliage application, AAH 320 g/ha, evaluated three weeks after application
How it was run: as §2

| SMILES | herbicidal effect, P: chickweed (chickweed [1]) | O: lambsquarters, herbicidal effect (criteria 0-5) (lambsquarters [2]) | herbicidal effect, H: barnyard grass (barnyard grass [3]) | K: Italian ryegrass, herbicidal effect (criteria 0-5) (Italian ryegrass [4]) | herbicidal effect on E: rice flat sedge (rice flat sedge) | herbicidal effect, F: southern crabgrass (southern crabgrass [5]) | Herbicidal effect, C: oval-leafed pondweed (oval-leafed pondweed) | P: chickweed, herbicidal effect (criteria 0-5) (chickweed [6]) | herbicidal effect on D: Chinese sprangletop (Chinese sprangletop) | L: windgrass, herbicidal effect (criteria 0-5) (windgrass [7]) | herbicidal effect, K: Italian ryegrass (Italian ryegrass [8]) | herbicidal effect, J: blackgrass (blackgrass [9]) | H: barnyard grass, herbicidal effect (criteria 0-5) (barnyard grass [10]) | herbicidal effect, I: wild oat (wild oat [11]) | herbicidal effect, N: redroot pigweed (redroot pigweed [12]) | Herbicidal effect, B: Japanese bulrush (Japanese bulrush) | F: southern crabgrass, herbicidal effect (criteria 0-5) (southern crabgrass [13]) | herbicidal effect, M: velvetleaf (velvetleaf [14]) | herbicidal effect, L: windgrass (windgrass [15]) | I: wild oat, herbicidal effect (criteria 0-5) (wild oat [16]) | further results |
| --- | --- | --- | --- | --- | --- | --- | --- | --- | --- | --- | --- | --- | --- | --- | --- | --- | --- | --- | --- | --- | --- |
| CSc1ccncc1-c1sc2ccc(F)cc2c1-c1c(O)c(C)nn(C)c1=O [2-389] | 4 (Herbicidal rate of 70% or more and less than 90%) | 5 (Herbicidal rate of 90% or more (almost completely withered)) | 3 (Herbicidal rate of 40% or more and less than 70%) | 4 (Herbicidal rate of 70% or more and less than 90%) | 5 (Herbicidal rate of 90% or more (almost completely withered)) | 1 (Herbicidal rate of 5% or more and less than 20%) | 0 (Herbicidal rate of 5% or less (almost no effect)) | 5 (Herbicidal rate of 90% or more (almost completely withered)) | 3 (Herbicidal rate of 40% or more and less than 70%) | 4 (Herbicidal rate of 70% or more and less than 90%) | 3 (Herbicidal rate of 40% or more and less than 70%) | 0 (Herbicidal rate of 5% or less (almost no effect)) | 5 (Herbicidal rate of 90% or more (almost completely withered)) | 1 (Herbicidal rate of 5% or more and less than 20%) | 5 (Herbicidal rate of 90% or more (almost completely withered)) | 0 (Herbicidal rate of 5% or less (almost no effect)) | 5 (Herbicidal rate of 90% or more (almost completely withered)) | 3 (Herbicidal rate of 40% or more and less than 70%) | 1 (Herbicidal rate of 5% or more and less than 20%) | 4 (Herbicidal rate of 70% or more and less than 90%) | herbicidal effect, R: persian speedwell (persian speedwell [17]): 5 (Herbicidal rate of 90% or more (almost completely withered)); herbicidal effect, O: lambsquarters (lambsquarters [18]): 5 (Herbicidal rate of 90% or more (almost completely withered)); herbicidal effect, G: green foxtail (green foxtail [19]): 3 (Herbicidal rate of 40% or more and less than 70%); herbicidal effect on H: barnyard grass (barnyard grass [20]): 5 (Herbicidal rate of 90% or more (almost completely withered)); Herbicidal effect, A: late watergrass (late watergrass): 3 (Herbicidal rate of 40% or more and less than 70%); J: blackgrass, herbicidal effect (criteria 0-5) (blackgrass [21]): 3 (Herbicidal rate of 40% or more and less than 70%); G: green foxtail, herbicidal effect (criteria 0-5) (green foxtail [22]): 5 (Herbicidal rate of 90% or more (almost completely withered)); N: redroot pigweed, herbicidal effect (criteria 0-5) (redroot pigweed [23]): 5 (Herbicidal rate of 90% or more (almost completely withered)); M: velvetleaf, herbicidal effect (criteria 0-5) (velvetleaf [24]): 5 (Herbicidal rate of 90% or more (almost completely withered)); R: persian speedwell, herbicidal effect (criteria 0-5) (persian speedwell [25]): 5 (Herbicidal rate of 90% or more (almost completely withered)) |
| Cc1nn(C)c(=O)c(-c2c(-c3ccc(Cl)s3)sc3ccc(F)cc23)c1O [2-390] | 4 (Herbicidal rate of 70% or more and less than 90%) | 5 (Herbicidal rate of 90% or more (almost completely withered)) | 5 (Herbicidal rate of 90% or more (almost completely withered)) | 5 (Herbicidal rate of 90% or more (almost completely withered)) | 5 (Herbicidal rate of 90% or more (almost completely withered)) | 4 (Herbicidal rate of 70% or more and less than 90%) | 0 (Herbicidal rate of 5% or less (almost no effect)) | 5 (Herbicidal rate of 90% or more (almost completely withered)) | 3 (Herbicidal rate of 40% or more and less than 70%) | 5 (Herbicidal rate of 90% or more (almost completely withered)) | 5 (Herbicidal rate of 90% or more (almost completely withered)) | 5 (Herbicidal rate of 90% or more (almost completely withered)) | 4 (Herbicidal rate of 70% or more and less than 90%) | 1 (Herbicidal rate of 5% or more and less than 20%) | 5 (Herbicidal rate of 90% or more (almost completely withered)) | 0 (Herbicidal rate of 5% or less (almost no effect)) | 5 (Herbicidal rate of 90% or more (almost completely withered)) | 3 (Herbicidal rate of 40% or more and less than 70%) | 4 (Herbicidal rate of 70% or more and less than 90%) | 4 (Herbicidal rate of 70% or more and less than 90%) | herbicidal effect, R: persian speedwell (persian speedwell [17]): 5 (Herbicidal rate of 90% or more (almost completely withered)); herbicidal effect, O: lambsquarters (lambsquarters [18]): 4 (Herbicidal rate of 70% or more and less than 90%); herbicidal effect, G: green foxtail (green foxtail [19]): 5 (Herbicidal rate of 90% or more (almost completely withered)); herbicidal effect on H: barnyard grass (barnyard grass [20]): 5 (Herbicidal rate of 90% or more (almost completely withered)); Herbicidal effect, A: late watergrass (late watergrass): 2 (Herbicidal rate of 20% or more and less than 40%); J: blackgrass, herbicidal effect (criteria 0-5) (blackgrass [21]): 4 (Herbicidal rate of 70% or more and less than 90%); G: green foxtail, herbicidal effect (criteria 0-5) (green foxtail [22]): 5 (Herbicidal rate of 90% or more (almost completely withered)); N: redroot pigweed, herbicidal effect (criteria 0-5) (redroot pigweed [23]): 5 (Herbicidal rate of 90% or more (almost completely withered)); M: velvetleaf, herbicidal effect (criteria 0-5) (velvetleaf [24]): 5 (Herbicidal rate of 90% or more (almost completely withered)); R: persian speedwell, herbicidal effect (criteria 0-5) (persian speedwell [25]): 5 (Herbicidal rate of 90% or more (almost completely withered)) |
